From patent US7947312B2, “Method of preparation and composition of a water soluble extract of the bioactive component of the plant species Uncaria for enhancing immune, anti-inflammatory, anti-tumor and DNA repair processes of warm blooded animals” (priority 2002, dated 2011)
Counter-ions that a name gives are not always drawn.

Assays:
mouse spleen cells = assay type: cell-based; conditions: for fraction of apoptotic T cells: Con A stimulated cultures (FIG. 4B); for induction of cell death in mitogen-stimulated spleen cells: mouse
Excerpt: Cells from parallel cultures were stained with trypan blue and the mean absolute number of viable and dead cells/ml from one out of three similar experiments are shown. […] Aliquots of the above cultures were stained with Annexin V and 7AAD and analyzed by flow cytometry. The results are presented as the mean number of Annexin V^+7AAD^− (apoptotic) and 7AAD^+ (dead) cells/ml±S.D. of duplicates from three experiments with similar results. Statistically significant differences (*p<0.05) and (**p<0.01) compared to the control cultures stimulated with Con A (FIG. 4B) or LPS (FIG. 4C) alone.
Cell cultures: Raji human Burkitt's lymphoma (CCL-86), Jurkat human acute T-cell leukemia (TIB-152), 70Z/3 mouse pre-B lymphocyte cell line (TIB-158), or mouse spleen cells were used in the experiments. The cells were cultured in RPMI medium (Life Technologies) supplemented with 10% FCS, 10 mM HEPES buffer, antibiotics, 50 μM 2-mercaptoethanol and 1 mM sodium pyruvate (all supplements from Life Technologies) at 37° C., 5% CO2. The number of Raji cells in duplicate cultures were determined with a Coulter Z1 cell counter (Beckman Coulter Inc, Fullerton, Calif., USA) three times each. The number of viable and dead cells were determined using trypan blue exclusion, by counting three independent samples from duplicate cultures. Cells were stained with 2 μg/ml 7-amino-actinomycin D (7AAD; Sigma-Aldrich, St Louis, Mo., USA) and with Annexin V (Molecular Probes) according to the manufacturer's protocol and the cells were defined as apoptotic (Annexin V+7AAD^−) or dead (7AAD^+) by flow cytometry. Spleen cells were polyclonally activated with 2.5 μg/ml concanavalin A (Con A; Amersham Pharmacia, Uppsala, Sweden) or 10 μg/ml lipopolysaccharide (LPS; Sigma-Aldrich). PMA (50 ng/ml) and ionomycin (1 μM) (both from Sigma-Aldrich) and pyrollidine dithiocarbamate (PDTC) (100 μM, EMD Bioscience Inc, Calbiochem, San Diego, Calif., USA) were used in some cultures as indicated. Proliferation was detected by measuring thymidine incorporation after a 4 hours pulse with 1 μCi ^3[H]-thymidine (Amersham Pharmacia).

[1] = test system: Raji human Burkitt's lymphoma; experiment: Raji cell proliferation (Coulter count, trypan blue); assay type: cell-based; conditions: 48 hours
Procedure: FIG. 3A illustrates Raji cells (2×10^5) that were cultured in the presence of indicated concentrations of C-MED-100®, QAA or QA. Growth rate was assayed after 48 hours by counting triplicate samples of duplicate cultures in a Coulter cell counter. Results from one representative experiment out of two performed is presented as mean values of cell/ml±standard deviation (S.D).
FIG. 3B illustrates triplicate samples of cells from duplicate parallel cultures stained with trypan blue at indicated times and counted.
Cell cultures: Raji human Burkitt's lymphoma (CCL-86), Jurkat human acute T-cell leukemia (TIB-152), 70Z/3 mouse pre-B lymphocyte cell line (TIB-158), or mouse spleen cells were used in the experiments. The cells were cultured in RPMI medium (Life Technologies) supplemented with 10% FCS, 10 mM HEPES buffer, antibiotics, 50 μM 2-mercaptoethanol and 1 mM sodium pyruvate (all supplements from Life Technologies) at 37° C., 5% CO2. The number of Raji cells in duplicate cultures were determined with a Coulter Z1 cell counter (Beckman Coulter Inc, Fullerton, Calif., USA) three times each. The number of viable and dead cells were determined using trypan blue exclusion, by counting three independent samples from duplicate cultures. […] Proliferation was detected by measuring thymidine incorporation after a 4 hours pulse with 1 μCi ^3[H]-thymidine (Amersham Pharmacia).

DXR-induced leucopenia = experiment: Doxorubicin (DXR)-induced leucopenia rat model, recovery of peripheral WBC; assay type: in vivo; conditions: 200 mg/kg gavage, compared to C-MED-100
Excerpt: In vivo evaluation of the efficacy of quinic acid as an active ingredient isolated from water soluble Cat's Claw extracts. A rat model was used to evaluate if active ingredients isolated from water soluble extracts of Cat's Claw could be shown to be effective in vivo by inducing recovery of peripheral white blood cells (WBC) after doxorubicin (DXR)-induced leucopenia. […] The rat study experimental design used to compare quinic acid and C-MED-100® is outlined in detail (diagrammatic form) below.
50 female W/Fu rats, weighing 150-180 g each, were divided into 5 groups of 10 rats per group. Doxorubicin, obtained from Pharmacia and Upjohn, was administered in a 2 mg/kg dose for all rats groups 2-5, IP injection (day 1, 3, 5). Group 3 also received C-MED-100® (Batch No E-40622), administered in a dose of 80 mg/kg, gavage daily from day 6 (24 hours after the third/last treatment of DXR) to the end of experiment (day 21/22). […]
The body weight (GM) of each rat was measured before and at the end of the experiment. […] Whole peripheral blood samples were collected into K3-EDTA containing tubes by periorbital puncture and then analyzed for WBC within 1 hour with an automated hematology analyzer (Sysmex, K-1000) Organ weights from major tissues (liver, kidney, lung, heart, spleen) were also collected and used as an indicator of any toxicity.

Jurkat T cells = experiment: Jurkat T cell proliferation (data not shown); assay type: cell-based, human
IκBα = experiment: Western blotting of IκBα and phosphorylated IκBα in LPS-stimulated 70Z/3 cells; assay type: cell-based, mouse; conditions: QA 2 mg/ml or PDTC 100 μM
Procedure: FIGS. 5C and 5D illustrate 70Z/3 cells (5×10^6) that were pre-treated with QA (2 mg/ml) or with PDTC (100 μM) as a positive control for two hours and thereafter stimulated with LPS (25 μg/ml) for the indicated time. Cytoplasmic extracts equalized for protein concentration were analyzed by western blotting using IκBα-specific antibodies. One representative experiment out of three (FIG. 5C) and one representative experiment out of two (FIG. 5D) are presented.
Preparation of cell extracts: The 70Z/3 cells were pretreated with QA (1 or 2 mg/ml) or with PDTC for 2 hours before they were stimulated with LPS for various time points. Whole cell extracts from the 70Z/3 cells (1×10^6) were prepared for analysis of the NF-κB signaling pathway. The cells were washed twice in PBS, resuspended in lysis buffer (75 mM Tris-HCl (pH 8.0), 100 mM NaCl, 5 mM KCl, 3 mM MgCl2, 2% NP-40, 1 mM PMSF and a protease inhibitor cocktail) (Roche Diagnostics Scandinavia AB) and incubated on ice for 10 min. The cell debris was pelleted and the supernatants were stored at −70° C. until Western Blot was performed.
Western blotting: Cellular extracts from 70Z/3 cells were separated on a 10% SDS polyacrylamide gel and the proteins were transferred to a nylon membrane. After blocking overnight in 5% dry fat-free milk in TBST, the membrane was incubated for 2 hrs with primary antibodies specific either to IκBα or to phosphorylated IκBα (both from Cell Signaling Technology Inc, Beverly, Mass.). The membranes were thereafter washed three times in TBST, and incubated with HRP-conjugated goat anti-rabbit antibodies (Amersham Pharmacia). The membranes were washed three times and chemoluminescence was detected using the ECL-reagent (Amersham Pharmacia) and x-ray film (CEA AB, Strängnäs, Sweden).

## O=C(O)[C@]1(O)C[C@@H](O)[C@@H](O)[C@H](O)C1 [QAA, quinic acid ammonium salt]
Mouse spleen cells
  fraction of apoptotic T cells: significantly reduced the fraction of apoptotic T cells
  induction of cell death in mitogen-stimulated spleen cells: neither C-MED-100®, QAA nor QA induce cell death
[1]
  Raji cell proliferation: inhibited cell proliferation in a dose dependent manner
DXR-induced leucopenia
  recovery from DXR-induced leucopenia: could induce recovery from DXR-induced leucopenia about as effectively as 80 mg/kg C-MED-100® could

## O=C(O)C1(O)CC(O)C(O)C(O)C1 (centres unmarked) [QA, 1,3,4,5-tetrahydroxy-cyclohexanecarboxylic acid]
Mouse spleen cells
  fraction of apoptotic T cells: tendency to reduction (p=0.053)
  induction of cell death in mitogen-stimulated spleen cells: neither C-MED-100®, QAA nor QA induce cell death
[1]
  Raji cell proliferation: neither inhibited the proliferation of Raji tumor cells
DXR-induced leucopenia
  recovery from DXR-induced leucopenia: could induce recovery from DXR-induced leucopenia about as effectively as 80 mg/kg C-MED-100® could
Jurkat T cells
  proliferation of Jurkat T cells: did not inhibit proliferation
IκBα
  phosphorylation of IκBα: did not affect the phosphorylation of IκBα
IκBα; 2 h pretreatment
  LPS-induced breakdown of IκBα: inhibited the LPS-induced breakdown of IκBα
